Measured values reported in patent US6020366A, “Butyric acid matrix metalloproteinase inhibitors” (priority 1998, dated 2000).

Assays:
Format in all cases: biochemical
MMP-2 (Gelatinase A) = target: T1, MMP-2 (Gelatinase A) (Homo sapiens, UniProt P08253); assay: inhibition of MMP-2 hydrolysis of thiopeptolide substrate; conditions: thiopeptolide substrate, pH 6.0, 22° C.; read-out: (IC50) MMP-2
T1 sequence (P08253 110-660): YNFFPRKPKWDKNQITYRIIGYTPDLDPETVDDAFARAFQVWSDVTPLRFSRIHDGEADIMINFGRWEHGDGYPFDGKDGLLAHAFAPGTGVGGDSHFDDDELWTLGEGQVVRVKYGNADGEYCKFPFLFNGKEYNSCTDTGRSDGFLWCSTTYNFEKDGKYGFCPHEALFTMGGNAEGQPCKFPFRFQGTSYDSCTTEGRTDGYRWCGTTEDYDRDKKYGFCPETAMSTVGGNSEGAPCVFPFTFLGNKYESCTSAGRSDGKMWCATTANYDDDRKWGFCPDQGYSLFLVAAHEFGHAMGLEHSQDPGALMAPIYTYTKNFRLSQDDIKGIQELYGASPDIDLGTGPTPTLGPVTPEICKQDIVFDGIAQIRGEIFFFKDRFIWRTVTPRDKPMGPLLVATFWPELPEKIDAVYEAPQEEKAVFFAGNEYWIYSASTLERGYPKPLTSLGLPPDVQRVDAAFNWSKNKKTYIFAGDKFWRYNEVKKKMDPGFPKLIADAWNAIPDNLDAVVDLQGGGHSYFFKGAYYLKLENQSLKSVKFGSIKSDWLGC

[1] = target: T2, full-length collagenase (FLC) (Homo sapiens, UniProt P03956); assay: inhibition of full-length collagenase hydrolysis of thiopeptolide substrate
T2 construct: full-length collagenase hydrolysis of thiopeptolide substrate (FLC)
T2 sequence (P03956 100-469): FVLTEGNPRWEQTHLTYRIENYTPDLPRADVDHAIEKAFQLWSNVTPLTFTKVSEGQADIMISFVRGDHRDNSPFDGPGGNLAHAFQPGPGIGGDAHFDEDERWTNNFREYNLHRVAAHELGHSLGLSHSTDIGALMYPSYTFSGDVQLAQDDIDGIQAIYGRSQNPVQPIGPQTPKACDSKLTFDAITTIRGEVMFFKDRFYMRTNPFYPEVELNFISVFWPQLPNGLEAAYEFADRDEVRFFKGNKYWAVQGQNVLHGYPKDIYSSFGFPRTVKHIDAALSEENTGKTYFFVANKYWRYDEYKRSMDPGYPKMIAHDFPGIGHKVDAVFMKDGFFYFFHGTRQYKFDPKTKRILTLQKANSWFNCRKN
From the text: (§1) The invention compounds have been evaluated in standard in vitro assays and shown to be potent inhibitors of several matrix metalloproteinase enzymes.
(§2) The compounds were additionally evaluated for their ability to inhibit full-length collagenase hydrolysis of thiopeptolide substrate (FLC) and full-length gelatinase B (FLGB) hydrolysis of thiopeptolide.

[2] = target: T3, full-length gelatinase B (FLGB) (Homo sapiens, UniProt P14780); assay: inhibition of full-length gelatinase B hydrolysis of thiopeptolide
T3 construct: full-length gelatinase B (FLGB) hydrolysis of thiopeptolide
T3 sequence (P14780 94-707): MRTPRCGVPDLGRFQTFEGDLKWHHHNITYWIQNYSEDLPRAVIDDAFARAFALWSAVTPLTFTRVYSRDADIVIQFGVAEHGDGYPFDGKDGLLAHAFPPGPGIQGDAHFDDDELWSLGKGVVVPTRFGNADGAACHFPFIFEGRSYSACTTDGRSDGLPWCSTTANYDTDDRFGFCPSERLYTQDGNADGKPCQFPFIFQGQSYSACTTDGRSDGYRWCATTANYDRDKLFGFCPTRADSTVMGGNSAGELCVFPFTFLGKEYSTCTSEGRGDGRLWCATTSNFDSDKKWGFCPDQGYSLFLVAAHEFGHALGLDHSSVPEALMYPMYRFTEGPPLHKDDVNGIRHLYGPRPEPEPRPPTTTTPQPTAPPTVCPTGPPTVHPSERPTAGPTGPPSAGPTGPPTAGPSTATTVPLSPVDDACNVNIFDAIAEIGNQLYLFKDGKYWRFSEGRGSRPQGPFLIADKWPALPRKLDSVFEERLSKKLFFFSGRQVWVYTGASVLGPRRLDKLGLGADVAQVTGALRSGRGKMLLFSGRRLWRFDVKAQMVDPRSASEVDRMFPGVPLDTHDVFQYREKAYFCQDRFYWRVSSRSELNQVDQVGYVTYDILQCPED
From the text: as §1, §2

MMP-3 (stromelysin) = MMP-3 (stromelysin) (Homo sapiens, UniProt P08254); assay: inhibition of MMP-3 hydrolysis of thiopeptolide substrate; conditions: thiopeptolide substrate, pH 6.0, 22° C.; read-out: (IC50) MMP-3
Chain of MMP-3 (stromelysin) (P08254 100-477): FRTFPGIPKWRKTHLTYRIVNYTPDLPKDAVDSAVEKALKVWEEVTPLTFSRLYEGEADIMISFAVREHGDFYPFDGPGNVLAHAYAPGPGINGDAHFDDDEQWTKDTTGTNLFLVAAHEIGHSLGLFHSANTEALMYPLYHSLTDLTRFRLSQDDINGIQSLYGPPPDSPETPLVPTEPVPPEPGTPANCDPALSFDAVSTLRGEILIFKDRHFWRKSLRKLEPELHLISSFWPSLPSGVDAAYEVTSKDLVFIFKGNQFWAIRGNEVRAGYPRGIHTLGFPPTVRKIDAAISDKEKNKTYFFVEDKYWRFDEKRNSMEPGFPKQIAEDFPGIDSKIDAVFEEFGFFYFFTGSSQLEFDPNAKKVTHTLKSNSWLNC
From the text: The assays measure the amount by which a test compound reduces the hydrolysis of a thiopeptolide substrate caused by a matrix metalloproteinase enzyme. Such assays are described in detail by Ye, et al., in Biochemistry, 1992;31(45):11231-11235).
Thiopeptolide substrates show virtually no decomposition or hydrolysis in the absence of a matrix metalloproteinase enzyme. A typical thiopeptolide substrate commonly utilized for assays is Ac-Pro-Leu-Gly-thioester-Len-Len-Gly-O Et. […] Assays are carried out with and without matrix metalloproteinase inhibitor compounds, and the amount of hydrolysis is compared for a determination of inhibitory activity of the test compounds.
In the table, MMP-1 refers to interstitial collagenase; MMP-2 refers to Gelatinase A; MMP-3 refers to stromelysin; MMP-7 refers to matrilysin; and MMP-13 refers to Collagenase 3.

MMP-13 (Collagenase 3) = MMP-13 (Collagenase 3) (Homo sapiens, UniProt P45452); assay: inhibition of MMP-13 hydrolysis of thiopeptolide substrate; conditions: thiopeptolide substrate, pH 6.0, 22° C.; read-out: (IC50) MMP-13
From the text: as §1

[3] = target: T4, MMP-1 (interstitial collagenase) (Homo sapiens, UniProt P03956); assay: inhibition of MMP-1 hydrolysis of thiopeptolide substrate; conditions: pH 6.0, 22° C.
T4 sequence (P03956 100-469): T2 sequence (P03956 100-469)
From the text: as §1

Row | Structure (SMILES) | IC50 (MMP-2 (Gelatinase A)) [µM] | IC50 [1] [µM] | IC50 [2] [µM] | IC50 (MMP-3 (stromelysin)) [µM] | IC50 (MMP-13 (Collagenase 3)) [µM] | IC50 [3] [µM]
1 | Cc1ccc(S(=O)(=O)N[C@@H](CC(=O)c2ccc3oc4ccccc4c3c2)C(=O)O)cc1 [Example 14, (S) -4-Dibenzofuran-2-yl-4-oxo-2-(4-methylphenylsulfonylamino)-butyric acid] | 0.017 |  |  | 0.26 | 1.1 | 83
2 | CC(Oc1ccccc1)C(=O)NC(CC(=O)c1ccc2oc3ccccc3c2c1)C(=O)O (stereo not shown) [Example 30, 4-Dibenzofuran-2-yl-4-oxo-2-(2-phenoxy-propionylamino)-butyric acid] | 0.035 |  |  | 0.1 | 2.9 | 45
3 | CCCCOc1ccc(C(=O)NC(CC(=O)c2ccc3oc4ccccc4c3c2)C(=O)O)cc1 (stereo not shown) [Example 37, 2-(4-Butoxy-benzoylamino)-4-dibenzofuran-2-yl-4-oxo-butyric acid] | 0.8 |  |  | 5 | 58 | 
4 | O=C(CC(NC(=O)c1ccc(Cl)cc1)C(=O)O)c1ccc2oc3ccccc3c2c1 (stereo not shown) [Example 39, 2-(4-Chloro-benzoylamino)-4-dibenzofuran-2-yl-4-oxo-butyric acid] | 0.15 |  |  | 1.2 | 12 | 
5 | O=C(CC(NC(=O)c1ccc(Br)cc1)C(=O)O)c1ccc2oc3ccccc3c2c1 (stereo not shown) [Example 42, 2-(4-Bromo-benzoylamino)-4-dibenzofuran-2-yl-4-oxo-butyric acid] | 0.18 |  |  | 1.3 | 17 | 
6 | O=C(CC(NC(=O)c1cnc2ccccc2n1)C(=O)O)c1ccc2oc3ccccc3c2c1 (stereo not shown) [Example 44, 4-Dibenzofuran-2-yl-4-oxo-2-[(quinoxaline-2-carbonyl)-amino]-butyric acid] | 0.31 |  |  | 3.5 | 27 | 
7 | O=C(CC(NC(=O)c1ccccn1)C(=O)O)c1ccc2oc3ccccc3c2c1 (stereo not shown) [Example 45, 4-Dibenzofuran-2-yl-4-oxo-2-[(pyridine-2-carbonyl)-amino]-butyric acid] | 0.11 |  |  | 1 | 15 | 
8 | COc1ccc(C(=O)NC(CC(=O)c2ccc3oc4ccccc4c3c2)C(=O)O)cc1 (stereo not shown) [Example 46, 4-Dibenzofuran-2-yl-2-(4-methoxy-benzoylamino)-4-oxo-butyric acid] | 0.14 |  |  | 1 | 11 | 
9 | O=C(CC(NC(=O)C1CCCC1)C(=O)O)c1ccc2oc3ccccc3c2c1 (stereo not shown) [Example 49, 2-(Cyclopentanecarbonyl-amino)-4-dibenzofuran-2-yl-4-oxo-butyric acid] | 0.08 |  |  | 0.35 | 4.4 | 
10 | O=C(CC(NC(=O)C1CCCCC1)C(=O)O)c1ccc2oc3ccccc3c2c1 (stereo not shown) [Example 50, 2-(Cyclohexanecarbonyl-amino)-4-dibenzofuran-2-yl-4-oxo-butyric acid] | 0.15 |  |  | 0.7 | 9.1 | 
11 | O=C(CC(NC(=O)c1cccs1)C(=O)O)c1ccc2oc3ccccc3c2c1 (stereo not shown) [Example 51, 4-Dibenzofuran-2-yl-4-oxo-2-[(thiophene-2-carbonyl)-amino]-butyric acid] | 0.16 |  |  | 1.3 | 16 | 
12 | O=C(CC(NC(=O)c1ccc2c(c1)OCO2)C(=O)O)c1ccc2oc3ccccc3c2c1 (stereo not shown) [Example 53, 2-[(Benzo[1,3)dioxole-5-carbonyl)-amino]-4-dibenzofuran-2-yl-4-oxo-butyric acid] | 0.13 |  |  | 1 | 9.2 | 
13 | CCC(C(=O)NC(CC(=O)c1ccc2oc3ccccc3c2c1)C(=O)O)c1ccccc1 (stereo not shown) [Example 54, 4-Dibenzofuran-2-yl-4-oxo-2-(2-phenylbutyrylamino)-butyric acid] | 0.06 |  |  | 0.25 | 1.5 | 
14 | Cc1nn(-c2ccccc2)nc1C(=O)NC(CC(=O)c1ccc2oc3ccccc3c2c1)C(=O)O (stereo not shown) [Example 55, 4-Dibenzofuran-2-yl-2-[(5-methyl-2-phenyl-2H-[1,2,3]triazole-4-carbonyl)-amino]-4-oxo-butyric acid] | 1.8 |  |  | 14 | 70 | 

Continued, values first:

Row | IC50 (MMP-2 (Gelatinase A)) [µM] | IC50 [1] [µM] | IC50 [2] [µM] | IC50 (MMP-3 (stromelysin)) [µM] | IC50 (MMP-13 (Collagenase 3)) [µM] | IC50 [3] [µM] | Structure (SMILES)
15 | 0.059 | > 100 | > 100 | 0.95 | 2.8 |  | O=C(C[C@H](NC(=O)C(F)(F)F)C(=O)O)c1ccc2oc3ccccc3c2c1 [Example 1, (S)-4-Dibenzofuran-2-yl-4-oxo-2-(2,2,2-trifluoroacetylamino)-butyric acid]
16 | 0.09 |  |  | 0.85 | 5.6 |  | O=C(CC(NC(=O)C1CC1)C(=O)O)c1ccc2oc3ccccc3c2c1 (stereo not shown) [Example 38, 2-(Cyclopropanecarbonyl-amino)-4-dibenzofuran-2-yl-4-oxo-butyric acid]
17 | 0.14 |  |  | 1.5 | 12 |  | O=C(CC(NC(=O)c1ccco1)C(=O)O)c1ccc2oc3ccccc3c2c1 (stereo not shown) [Example 41, 4-Dibenzofuran-2-yl-2-[(furan-2-carbonyl)-amino]-4-oxo-butyric acid]
18 | 0.07 |  |  | 0.66 | 7.1 |  | O=C(CC(NC(=O)c1ccc(F)cc1)C(=O)O)c1ccc2oc3ccccc3c2c1 (stereo not shown) [Example 43, 4-Dibenzofuran-2-yl-2-(4-fluoro-benzoylamino)-4-oxo-butyric acid]
19 | 0.13 |  |  | 0.87 | 8.8 |  | COc1ccc(C(=O)NC(CC(=O)c2ccc3oc4ccccc4c3c2)C(=O)O)cc1OC (stereo not shown) [Example 47, 4-Dibenzofuran-2-yl-2-(3,4-dimethoxy-benzoylamino)-4-oxo-butyric acid]
20 | 0.32 |  |  | 1.5 | 20 |  | O=C(CC(NC(=O)c1ccc(C(F)(F)F)cc1)C(=O)O)c1ccc2oc3ccccc3c2c1 (stereo not shown) [Example 48, 4-Dibenzofuran-2-yl-4-oxo-2-(4-trifluoromethyl-benzoylamino)-butyric acid]
21 | 2.5 |  |  | 7.7 | 48 |  | O=C(Cc1cccs1)NC(CC(=O)c1ccc2oc3ccccc3c2c1)C(=O)O (stereo not shown) [Example 52, 4-Dibenzofuran-2-yl-4-oxo-2-(2-thiophen-2-yl-acetylamino)-butyric acid]
